Test results taken from patent publication US7179819B2, “VLA-4 inhibitor compounds” (Daiichi Pharmaceutical Co., Ltd., priority 1999, dated 2007).
Where a name gives a salt, the structure may show the parent alone.

A melting point of 135 to 142 °C was found for `COc1cc(CC(=O)N2C[C@@H](NS(=O)(=O)c3ccc4ccccc4c3)C[C@H]2COc2ccc(C(=O)O)cc2)ccc1NC(=O)Nc1ccccc1Cl` [Compound 161, 4-[cis-1-[4-[N′-(2-chlorophenyl)ureido]-3-methoxylphenylacetyl]-4-(2-naphthalenesulfonamido)-(2S)-pyrrolidinyl]methoxybenzoic acid] in this work. A melting point of 129 to 132 °C was found for `COc1cc(CC(=O)N2C[C@@H](F)C[C@H]2COc2ccc(C(=O)O)cc2)ccc1NC(=O)Nc1ccccc1C(F)(F)F` [Compound 76, 4-[(4S)-fluoro-1-[3-methoxy-4-[N′-(2-trifluoromethylphenyl)ureido]phenylacetyl]-(2S)-pyrrolidinylmethoxy]benzoic acid] in this work. A melting point of 243 to 245 °C was found for `COc1cc(CC(=O)N2CCC[C@H]2CS(=O)(=O)c2cccc(C(=O)O)c2)ccc1NC(=O)Nc1ccccc1C` (stereo in doubt) (as salt: salt) [Compound 21, 3-[[1-[3-methoxy-4-[N′-(2-methylphenyl)ureido]phenylacetyl]-2-pyrrolidinyl]methylsulfonyl]benzoic acid] in this work. A melting point of 125 to 130 °C was found for `COc1cc(CC(=O)N(C)CCOc2ccc(C(=O)O)cc2N(C)C)ccc1NC(=O)Nc1ccccc1C` [Compound 276, 3-dimethylamino-4-[[2-[3-methoxy-4-[N′-(2-methylphenyl)ureido]phenylacetyl]methylamino]ethoxy]benzoic acid] in this work. A melting point of 165 to 167 °C was found for `COc1cc(CC(=O)N2C[C@@H](N(C)C)C[C@H]2COc2ccc(C(=O)O)cc2)ccc1NC(=O)Nc1ccccc1Cl` in this work. A melting point of 155 to 160 °C was found for `COc1cc(CC(=O)N(C)CCNc2ccc(C(=O)O)c(NC(C)=O)c2)ccc1NC(=O)Nc1ccccc1Br` [Compound 303, 2-acetylamino-4-[2-N-[4-[N′-(2-bromophenyl)ureido]-3-methoxyphenyl]-N-methylacetamido]ethylaminobenzoic acid] in this work. A melting point of 120 to 125 °C was found for `COc1cc(CC(=O)N(C)CCOc2ccc(C(=O)O)cc2N(C)C)ccc1NC(=O)Nc1ccccc1F` [Compound 277, 3-dimethylamino-4-[[2-[3-methoxy-4-[N′-(2-fluorophenyl)ureido]phenylacetyl]methylamino]ethoxy]benzoic acid] in this work. A melting point of 159 to 161 °C was found for `COc1cc(CC(=O)N2C[C@H](N(C)C)C[C@H]2COc2ccc(C(=O)O)cc2)ccc1NC(=O)Nc1ccccc1Cl` in this work. A melting point of 122 to 125 °C was found for `COc1cc(CC(=O)N2CCC[C@H]2COc2ncc(C(=O)O)cc2Cl)ccc1NC(=O)Nc1ccccc1C` (stereo in doubt) [Compound 47, 3-chloro-2-[[1-[3-methoxy-4-[N′-(2-methylphenyl)ureido]phenylacetyl]-2-pyrrolidinyl]methoxy]pyridine-5-carboxylic acid] in this work. A melting point of 129 to 133 °C was found for `COc1cc(CC(=O)N2C[C@@H](Oc3ccc4ncccc4c3)C[C@H]2COc2ccc(C(=O)O)cc2)ccc1NC(=O)Nc1ccccc1Cl` [Compound 121] in this work. A melting point of 120 to 121 °C was found for `COc1cc(CC(=O)N2C3CCCCC3C[C@H]2COC2CCC(C(=O)O)CC2)ccc1NC(=O)Nc1ccccc1Cl` (stereo partly drawn) [Compound 178, cis-4-[1-[4-[N′-(2-chlorophenyl)ureido]-3-methoxylphenylacetyl]-(2S)-octahydroindolylmethoxy]cyclohexanecarboxylic acid] in this work. A melting point of 130 to 134 °C was found for `COc1cc(CC(=O)N2C3CCCCC3C[C@H]2COc2ccc(C(=O)O)cc2)ccc1NC(=O)Nc1ccccc1C` (stereo partly drawn) [Compound 165, 4-[1-[3-methoxy-4-[N′-(2-methylphenyl)ureido]phenylacetyl]-(2S)-octahydroindolylmethoxy]benzoic acid] in this work. A melting point of 110 to 113 °C was found for `COc1cc(CC(=O)N2CCC[C@H]2COC2CCC(C(=O)O)CC2)ccc1NC(=O)Nc1ccccc1C` (stereo partly drawn) [Compound 174, 4-[[1-[3-methoxy-4-[N′(2-methylphenyl)ureido]phenylacetyl]-(2S)-pyrrolidinyl]methoxy]cyclohexanecarboxylic acid] in this work. A melting point of 175 to 177 °C was found for `COc1cc(CC(=O)N2CC[C@@H](Oc3ccc(C(=O)O)cc3)C2)ccc1NC(=O)Nc1ccccc1Br` [Compound 187, 4-[1-[4-[N′-(2-bromophenyl)ureido]-3-methoxyphenylacetyl]-(3R)-pyrrolidinyloxy]benzoic acid] in this work. A melting point of 123 to 126 °C was found for `Cc1cc(CC(=O)N2C[C@@H](F)C[C@H]2COc2ccc(C(=O)O)cc2)ccc1NC(=O)Nc1ccccc1C(F)(F)F` [Compound 77, 4-[(4S)-fluoro-1-[3-methyl-4-[N′-(2-trifluoromethylphenyl)ureido]phenylacetyl]-(2S)-pyrrolidinylmethoxy]benzoic acid] in this work. For `COc1cc(CC(=O)N2C[C@@H](F)C[C@H]2COc2ccc(C(=O)O)cc2)ccc1NC(=O)Nc1c(Cl)cccc1Cl` [Compound 88, 4-[1-[4-[N′-(2,6-dichlorophenyl)ureido]-3-methoxyphenylacetyl]-(4S)-fluoro-(2S)-pyrrolindinyl]methoxybenzoic acid], the melting point was 162 to 168 °C (dec.). A melting point of 130 to 135 °C was found for `COc1cc(CC(=O)N(C)CCOc2ccc(C(=O)O)cc2N(C)C(C)C)ccc1NC(=O)Nc1ccccc1C` [Compound 288, 3-(N-isopropyl-N-methylamino)-4-[[2-[3-methoxy-4-[N′-(2-methylphenyl)ureido]phenylacetyl]methylamino]ethoxy]benzoic acid] in this work. In the case of `Cc1cc(CC(=O)N2C[C@@H](F)C[C@H]2COc2ccc(C(=O)O)cc2)ccc1NC(=O)Nc1c(Cl)cccc1Cl` [Example 83, 4-[(2S, 4S)-1-[4-[N′-(2,6-Dichlorophenyl)ureido]-3-methylphenylacetyl]4-fluoro-2-pyrrolidinyl]methoxybenzoic acid], the melting point is reported as 174 to 180 °C (dec.). A melting point of 120 to 125 °C was found for `COc1cc(CC(=O)N(C)CCOc2ccc(C(=O)O)cc2N2CCCCC2)ccc1NC(=O)Nc1ccccc1C` [Compound 291, 3-(1-piperidinyl)-4-[[2-[3-methoxy-4-[N′-(2-methylphenyl)ureido]phenylacetyl]methylamino]ethoxy]benzoic acid] in this work. A melting point of 125 to 133 °C was found for `COc1cc(CC(=O)N2CSC[C@H]2COc2ccc(C(=O)O)cc2)ccc1NC(=O)Nc1ccccc1Br` (stereo in doubt) [Compound 170, 4-[3-[4-[N′-(2-bromophenyl)ureido]-3-methoxyphenylacetyl]-4-thiazolidinyl]methoxybenzoic acid] in this work. A melting point of 139 to 141 °C was found for `COc1cc(CC(=O)N(C)CCOc2ccc(C(=O)O)cc2C(=O)O)ccc1NC(=O)Nc1ccccc1C` (as salt: salt) [Compound 254, 4-[[2-[3-methoxy-4-[N′-(2-methylphenyl)ureido]phenylacetyl]methylamino]ethoxy]isophthalic acid] in this work. A melting point of 228 to 231 °C was found for `Cc1ccccc1NC(=O)Nc1ccc(CC(=O)N[C@@H](C)COc2ccc(C(=O)O)cc2Cl)cc1` [Compound 274, (S)-3-chloro-4-[2-[4-[N′-(2-methylphenyl)ureido]phenylacetylamino]-1-propoxy]benzoic acid] in this work. A melting point of 190 to 193 °C was found for `COc1cc(CC(=O)N2CC[C@H](Oc3ccc(C(=O)O)cc3)C2)ccc1NC(=O)Nc1ccccc1Cl` [Compound 183, 4-[1-[4-[N′-(2-chlorophenyl)ureido]-3-methoxyphenylacetyl]-(3S)-pyrrolidinyloxy]benzoic acid] in this work. A melting point of 137 to 143 °C was found for `Cc1cc(CC(=O)N2C[C@@H](F)C[C@H]2COc2ccc(C(=O)O)cc2)ccc1NC(=O)Nc1ccccc1F` [Compound 74, 4-[(4S)-fluoro-1-[4-[N′-(2-fluorophenyl)ureido]-3-methylphenylacetyl]-(2S)-pyrrolidinylmethoxy]benzoic acid] in this work. A melting point of 161 to 164 °C was found for `COc1cc(CC(=O)N2CCCC2C#Cc2ccc(C(=O)O)cc2)ccc1NC(=O)Nc1ccccc1C` (stereo not drawn) [Compound 14, 4-[2-[1-[3-methoxy-4-[N′-(2-methylphenyl)ureido]phenylacetyl]-2-pyrrolidinyl]ethynyl]benzoic acid] in this work. A melting point of 125 to 128 °C was found for `COc1cc(CC(=O)N2C[C@@H](NS(C)(=O)=O)C[C@H]2COc2ccc(C(=O)O)cc2)ccc1NC(=O)Nc1ccccc1Br` [Compound 164, 4-[4-methanesulfonamido-1-[4-[N′-(2-bromophenyl)ureido]-3-methoxyphenylacetyl]-(2S)-pyrrolidinyl]methoxybenzoic acid] in this work. A melting point of 157 to 160 °C was found for `Cc1ccccc1NC(=O)Nc1ccc(CC(=O)N2C[C@@H](Oc3ccc(C(=O)O)cc3)C[C@H]2COc2ccc(C(=O)O)cc2)cc1` [Compound 119, 4-[(4S)-(4-carboxyphenoxy)-1-[4-[N′-(2-methylphenyl)uriedo]phenylacetyl]-(2S)-pyrrolidinylmethoxy]benzoic acid] in this work. A melting point of 112 to 115 °C was found for `COc1cc(CC(=O)N2C[C@H](OC)C[C@H]2COc2ccc(C(=O)O)cc2)ccc1NC(=O)Nc1ccccc1C` [Compound 135, 4-[(4R)-methoxy-1-[3-methoxy-4-[N′-(2-methylphenyl)ureido]phenylacetyl]-(2S)-pyrrolidinylmethoxy]benzoic acid] in this work. A melting point of 149 to 153 °C was found for `COc1cc(CC(=O)N2C[C@@H](Oc3ccc4ncccc4c3)C[C@H]2COc2ccc(C(=O)O)cc2)ccc1NC(=O)Nc1ccccc1Br` [Compound 122] in this work. A melting point of 160 to 170 °C was found for `COc1cc(CC(=O)N2CCCC2CN2CCN(CC(=O)O)CC2)ccc1NC(=O)Nc1ccccc1C` (stereo not drawn) (as salt: salt) in this work. A melting point of 262 to 265 °C was found for `Cc1ccccc1NC(=O)Nc1ccc(CC(=O)N[C@@H](C)COc2ccc(C(=O)O)cc2)cc1` [Compound 273, (S)-4-[2-[4-[N′-(2-methylphenyl)ureido]phenylacetylamino]-1-propoxy]benzoic acid] in this work. A melting point of 130 to 135 °C was found for `O=C(Nc1ccc(CC(=O)N2C[C@@H](F)C[C@H]2COc2ccc(C(=O)O)cc2)cc1)Nc1ccccc1C(F)(F)F` [Compound 75, 4-[(4S)-fluoro-1-[4-[N′-(2-trifluoromethylphenyl)ureido]phenylacetyl]-(2S)-pyrrolidinylmethoxy]benzoic acid] in this work. A melting point of 154 to 157 °C was found for `COc1cc(CC(=O)N2CCCC2C#Cc2ccc(C(=O)O)cc2)ccc1NC(=O)Nc1ccccc1` (stereo not drawn) [Compound 13, 4-[2-[1-[3-methoxy4-(N′-phenylureido)phenylacetyl]-2-pyrrolidinyl]ethynyl]benzoic acid] in this work.
